This experiment concerns the target Misshapen-like kinase 1 (MINK1) (Homo sapiens, UniProt Q8N4C8). The experiment in a line: ADP-Glo kinase assay with recombinant human MINK1, MBP substrate and ATP. Type of experiment: biochemical.

Sequence of Misshapen-like kinase 1 (MINK1) (Q8N4C8 whole entry): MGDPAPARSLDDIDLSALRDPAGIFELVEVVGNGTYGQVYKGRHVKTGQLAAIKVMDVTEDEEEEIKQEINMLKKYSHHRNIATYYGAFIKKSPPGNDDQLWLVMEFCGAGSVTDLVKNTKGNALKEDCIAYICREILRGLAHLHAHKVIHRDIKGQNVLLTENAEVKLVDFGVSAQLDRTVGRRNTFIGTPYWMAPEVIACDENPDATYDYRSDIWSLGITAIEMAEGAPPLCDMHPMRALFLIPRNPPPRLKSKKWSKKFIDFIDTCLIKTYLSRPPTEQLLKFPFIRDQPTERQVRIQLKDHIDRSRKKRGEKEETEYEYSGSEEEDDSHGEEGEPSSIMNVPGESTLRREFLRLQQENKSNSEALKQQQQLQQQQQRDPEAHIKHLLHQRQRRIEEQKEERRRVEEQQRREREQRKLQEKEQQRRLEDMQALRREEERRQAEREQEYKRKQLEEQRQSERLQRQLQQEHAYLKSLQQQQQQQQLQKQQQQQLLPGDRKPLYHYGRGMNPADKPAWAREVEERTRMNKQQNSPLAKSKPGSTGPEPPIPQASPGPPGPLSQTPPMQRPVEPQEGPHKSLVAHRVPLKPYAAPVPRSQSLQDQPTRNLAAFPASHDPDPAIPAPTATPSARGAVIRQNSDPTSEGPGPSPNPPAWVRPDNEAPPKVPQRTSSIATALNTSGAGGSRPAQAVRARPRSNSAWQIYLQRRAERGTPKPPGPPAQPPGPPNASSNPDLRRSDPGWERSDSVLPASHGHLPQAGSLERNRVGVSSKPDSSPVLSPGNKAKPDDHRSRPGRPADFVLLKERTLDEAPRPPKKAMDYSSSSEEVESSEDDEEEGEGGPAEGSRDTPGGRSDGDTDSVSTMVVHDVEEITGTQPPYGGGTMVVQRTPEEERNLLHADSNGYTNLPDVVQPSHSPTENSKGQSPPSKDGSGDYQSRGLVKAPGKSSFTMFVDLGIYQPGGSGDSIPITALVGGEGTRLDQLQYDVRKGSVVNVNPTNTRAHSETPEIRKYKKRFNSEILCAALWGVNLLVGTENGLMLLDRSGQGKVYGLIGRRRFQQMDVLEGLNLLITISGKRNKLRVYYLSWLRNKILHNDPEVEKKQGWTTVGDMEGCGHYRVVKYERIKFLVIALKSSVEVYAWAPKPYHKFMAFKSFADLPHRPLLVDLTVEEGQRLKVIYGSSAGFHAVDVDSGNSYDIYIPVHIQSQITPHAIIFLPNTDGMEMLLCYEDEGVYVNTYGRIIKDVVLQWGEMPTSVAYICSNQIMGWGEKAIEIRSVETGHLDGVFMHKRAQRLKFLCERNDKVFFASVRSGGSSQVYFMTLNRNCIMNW

For `Cc1ccc(-n2nc(C(C)(C)C)cc2NC(=O)NCc2cc(F)ccc2Oc2ccc3c(cnn3CCO)c2)cc1` [pexmetinib], the IC50 is 10 µM.

The values are drawn from publication PMC9630125 (Oncogene, 2022).
